Measured values as given in PubChem BioAssay AID588709 (The Scripps Research Institute Molecular Screening Center, 2011).
pIC50: −log10 of the molar value. Where “and” joins values, the source holds several entries; their conditions need not be identical. Equal entries are not always repeated. Calls of active or inactive are those of the source. No rule for the calls is given here.

What follows are molecules tested on HEK293 cytotoxicity, ATP luminescence (assay: cytotoxicity in HEK cells, dose response, counter-screen for IDE inhibitor project, cell-based, luminescence (AID 588709)).
In the case of `Cc1ccc(C)c(N2C(=N)S/C(=C\c3ccc(-c4ccccc4C(=O)O)o3)C2=O)c1`, the IC50 was > 71.5 µM (inactive). `O=C(CSc1nnc(-c2cccc(Cl)c2)n1Cc1ccco1)Nc1ccc2c(c1)OCCO2` was tested, and the IC50 was 29.7 µM (inactive). For `O=C(Nc1cccc(C(F)(F)F)c1)c1csc(-c2cccc(C(F)(F)F)c2)n1`, the IC50 was 55.9 µM (inactive). In the case of `CC(Sc1nnc(-c2cccnc2)n1-c1ccccc1F)C(=O)N1CCCc2ccccc21` (stereo unspecified), the IC50 was 32.1 µM (inactive). In the case of `Cc1c(CCC(=O)NCCCn2ccnc2)c(=O)oc2cc3oc4c(c3cc12)CCCC4`, the IC50 was 21.4 µM (inactive). `COc1cc(/C=C2\SC(=S)N(NC(C)=O)C2=O)ccc1OC(=O)c1ccco1` was tested, and the IC50 was > 71.5 µM (inactive). With `Cc1ccc(NC(=O)CSc2nnc(-c3cccc(Cl)c3)n2Cc2ccco2)c(C)c1` the IC50 was 35.6 µM (inactive). For `O=C(Nc1cccc(C(F)(F)F)c1)c1csc(-c2ccccc2)n1`, the IC50 was 33.3 µM (inactive). With `O=C(C1CC1)N1CCN(c2ccnc3cc(Cl)ccc23)CC1` the IC50 was > 71.5 µM (inactive). With `O=C(Nc1cccc(C(F)(F)F)c1)c1csc(Cc2cccc(C(F)(F)F)c2)n1` the IC50 was 29.5 µM (inactive). With `CCN(CC)c1ccc(/C=C2\C(=N)N3N=C(CC(=O)N4CCOCC4)SC3=NC2=O)cc1` the IC50 was > 71.5 µM (inactive). For `Clc1cccc(-c2nnc(SCc3nc4ccccc4[nH]3)n2Cc2ccco2)c1`, the IC50 was 23.3 µM (inactive). For `O=C(Nc1ccc2oc(-c3cccnc3)nc2c1)c1ccc2c(c1)OCCO2`, the IC50 was > 71.5 µM (inactive). With `Nc1c(C(=O)Nc2nccs2)sc2nc(-c3cccs3)cc(C(F)(F)F)c12` the pIC50 was 5.04. With `Cc1nc(-c2cccnc2)sc1C(=O)Nc1cccc(C(F)(F)F)c1` the IC50 was 15.8 µM (inactive). `Cn1c(=O)c(C(=O)CN2CCCc3ccccc32)c(N)n(Cc2ccccc2)c1=O` was tested, and the IC50 was 30.1 µM (inactive). In the case of `COc1ccc(NC(=O)CSc2nnc(CN3CCOCC3)n2C)cc1Cl`, the IC50 was > 71.5 µM (inactive). With `O=C(Nc1cc(C(F)(F)F)cc(C(F)(F)F)c1)c1csc(-c2ccncc2)n1` the IC50 was > 71.5 µM (inactive). `O=c1c2ccccc2sn1-c1cc(S(=O)(=O)N2CCOCC2)ccc1N1CCOCC1` showed a pIC50 of 5.02. `O=C(CSc1nnc(-c2cccc(Cl)c2)n1Cc1ccco1)Nc1ccccc1C(F)(F)F` was tested, and the IC50 was 30.9 µM (inactive). `COc1cccc(-c2nnc(SCc3nc4ccccc4[nH]3)n2Cc2ccco2)c1` was tested, and the IC50 was 36.5 µM (inactive). In the case of `Cn1c(SCc2nc3ccccc3[nH]2)nnc1-c1cccc(Cl)c1`, the IC50 was > 71.5 µM (inactive). `O=C(CSc1nnc(-c2cccc(Cl)c2)n1Cc1ccco1)c1ccc2ccccc2c1` was tested, and the IC50 was 30.7 µM (inactive). `O=C(Nc1cccc(C(F)(F)F)c1)c1csc(-c2ccncc2)n1` was tested, and the IC50 was 24.1 µM (inactive). `Cc1ccc(-c2nc(C(=O)Nc3cccc(C(F)(F)F)c3)cs2)cc1` was tested, and the IC50 was 36.1 µM (inactive). `COc1ccc(-c2nc(C(=O)Nc3cccc(C(F)(F)F)c3)cs2)cc1` was tested, and the IC50 was 67.8 µM (inactive). In the case of `CCOc1ccc2[nH]c3c(N4CCN(C(=O)c5ccco5)CC4)ncnc3c2c1`, the IC50 was 21.1 µM (inactive). `O=C(CSc1nnc(-c2cccc(Cl)c2)n1Cc1ccco1)Nc1ccc2cn[nH]c2c1` was tested, and the IC50 was > 71.5 µM (inactive). `Cc1cccc(-c2nnc(SCc3nc4ccccc4[nH]3)n2Cc2ccco2)c1` was tested, and the IC50 was 34.8 µM (inactive) and 32.7 µM (inactive). For `COc1ccc(C(=O)N2CCN(C(=O)C3COc4ccccc4O3)CC2)cc1OC` (stereo unspecified), the IC50 was > 71.5 µM (inactive). With `Clc1cccc(-c2nnc(SCc3nc4ccccc4[nH]3)n2-c2ccccc2)c1` the IC50 was 31.2 µM (inactive).
